Like-named read-outs stand apart in the source and are kept apart here.
Target: T1, hENT1 (Homo sapiens, UniProt Q99808)
T1 construct: performed on erythrocyte cell membranes endogenously expressing the transporter; tissue Sanquin Bloedvoorziening, Amsterdam, The Netherlands; host or cells: erythrocyte membranes (endogenous expression)
T1 sequence (Q99808 1-456): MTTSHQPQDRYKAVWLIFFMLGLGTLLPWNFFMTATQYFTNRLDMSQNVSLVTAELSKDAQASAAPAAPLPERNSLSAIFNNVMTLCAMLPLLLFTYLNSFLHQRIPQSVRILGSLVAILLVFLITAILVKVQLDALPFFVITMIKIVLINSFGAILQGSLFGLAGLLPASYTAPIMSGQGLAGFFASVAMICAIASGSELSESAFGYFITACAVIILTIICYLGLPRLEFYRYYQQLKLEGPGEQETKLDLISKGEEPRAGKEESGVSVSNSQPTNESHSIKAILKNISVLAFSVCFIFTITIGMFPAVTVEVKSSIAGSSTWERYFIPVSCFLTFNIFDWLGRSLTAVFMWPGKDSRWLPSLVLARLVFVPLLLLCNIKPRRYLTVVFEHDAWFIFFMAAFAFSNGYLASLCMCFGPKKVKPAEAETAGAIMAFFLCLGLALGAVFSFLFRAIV
Test: time-dependent hENT1 radioligand binding assay ([3H]NBTI displacement with or without 4 h preincubation)
Details: for % displacement at 1 μM at 4 h preincubation / % displacement at 1 μM without preincubation / [3H]NBTI displacement: 1 µM inhibitor; for % displacement at 1 μM at 4 h preincubation / % displacement at 1 μM without preincubation: mean (individual values) of two experiments; for [3H]NBTI displacement: with or without 4 h preincubation not told apart; for time-dependent shift in affinity (pKi shift) or displacement upon 4 h preincubation: 4 h preincubation vs without preincubation
Experimental: Radioligand displacement assays were performed as previously described. In brief, the experiments were performed on erythrocyte membranes (Sanquin Bloedvoorziening, Amsterdam, The Netherlands) using a single concentration of 1 µM or multiple concentrations (ranging from 10^–10 to 10^–6) of unlabeled inhibitors in the presence of 4 nM [^3H]NBTI at 10 °C for 1 h in assay buffer (50 mM Tris–HCl, pH 7.4, 0.1% w/v CHAPS). Non-specific binding (NSB) was assessed with 10 µM unlabeled NBTI. […] Subsequently, [^3H]NBTI was added to the preincubated and control samples (containing erythrocyte membranes, unlabeled inhibitor and radioligand) and both types of samples were incubated for another hour. Incubation was terminated by rapid vacuum filtration over Whatman™ UniFilter™ 96-well GF/C microplates using a FilterMate™ Universal Harvester (PerkinElmer, Groningen, The Netherlands). Subsequently, the plates were washed ten times with ice-cold wash buffer (50 mM Tris–HCl, pH 7.4). Thereafter, the filters were dried for 45 min at 55 °C and 25 µL of Microscint (PerkinElmer) was added per well.
All experimental data was analyzed using GraphPad Prism 10.0.2 software (GraphPad Software Inc., San Diego, CA, USA). [^3H]NBTI assays were baseline-corrected with NSB and normalized to this value (0%) and TB (100%). The radioligand displacement curves were fitted to a one-site binding model by nonlinear regression from which the pIC50 values were obtained. […] Data shown represent the mean ± SD of at least two or mean ± SEM of at least three individual experiments each performed in duplicate.
Next, the potentially covalent inhibitors that we synthesized were subjected to the aforementioned radioligand displacement assay. To study the existence of a covalent interaction with hENT1, an additional preincubation step was included.

[1] = Ki (nM) at 4 h preincubation, 4 h preincubation at 10 °C
[2] = pKi ± SEM at 4 h preincubation, 4 h preincubation at 10 °C
[3] = without preincubation, read-out: Ki (nM) without preincubation (converted)

COc1cc(C(=O)OCCCN2CCN(CCOC(=O)c3cccc(S(=O)(=O)F)c3)CC2)cc(OC)c1OC [Compound 9a, 3-(4-(2-((3-(fluorosulfonyl)benzoyl)oxy)ethyl)piperazin-1-yl)propyl 3,4,5-trimethoxybenzoate]
% displacement at 1 μM at 4 h preincubation (4 h preincubation at 10 °C): 3 (-9, 13) %
% displacement at 1 μM without preincubation (without preincubation): -14 (-21, -7) %

COc1cc(C(=O)OCCCN2CCN(CCCOC(=O)c3cccc(S(=O)(=O)F)c3)CC2)cc(OC)c1OC [Compound 9b, 3-(4-(3-((3-(fluorosulfonyl)benzoyl)oxy)propyl)piperazin-1-yl)propyl 3,4,5-trimethoxybenzoate]
% displacement at 1 μM at 4 h preincubation (4 h preincubation at 10 °C): 33 (32, 34) %
% displacement at 1 μM without preincubation (without preincubation): 33 (32, 33) %

COc1cc(C(=O)OCCCN2CCN(CCCCOC(=O)c3cccc(S(=O)(=O)F)c3)CC2)cc(OC)c1OC [Compound 9c, 3-(4-(4-((3-(fluorosulfonyl)benzoyl)oxy)butyl)piperazin-1-yl)propyl 3,4,5-trimethoxybenzoate]
% displacement at 1 μM at 4 h preincubation (4 h preincubation at 10 °C): 51 (48, 54) %
% displacement at 1 μM without preincubation (without preincubation): 61 (53, 69) %

COc1cc(C(=O)OCCCN2CCN(CCOC(=O)c3ccc(S(=O)(=O)F)cc3)CC2)cc(OC)c1OC [Compound 9d, 3-(4-(2-((4-(fluorosulfonyl)benzoyl)oxy)ethyl)piperazin-1-yl)propyl 3,4,5-trimethoxybenzoate]
% displacement at 1 μM at 4 h preincubation (4 h preincubation at 10 °C): 33 (34, 32) %
% displacement at 1 μM without preincubation (without preincubation): 17 (12, 22) %

COc1cc(C(=O)OCCCN2CCN(CCCOC(=O)c3ccc(S(=O)(=O)F)cc3)CC2)cc(OC)c1OC [Compound 9e, 3-(4-(3-((4-(fluorosulfonyl)benzoyl)oxy)propyl)piperazin-1-yl)propyl 3,4,5-trimethoxybenzoate]
% displacement at 1 μM at 4 h preincubation (4 h preincubation at 10 °C): 26 (30, 22) %
% displacement at 1 μM without preincubation (without preincubation): 26 (24, 27) %

COc1cc(C(=O)OCCCN2CCN(CCCCOC(=O)c3ccc(S(=O)(=O)F)cc3)CC2)cc(OC)c1OC [Compound 9f, 3-(4-(4-((4-(fluorosulfonyl)benzoyl)oxy)butyl)piperazin-1-yl)propyl 3,4,5-trimethoxybenzoate]
% displacement at 1 μM at 4 h preincubation (4 h preincubation at 10 °C): 54 (53, 56) %
% displacement at 1 μM without preincubation (without preincubation): 57 (52, 62) %

COc1cc(C(=O)OCCCN2CCN(CCCOC(=O)c3ccc(N=C=S)cc3)CC2)cc(OC)c1OC [Compound 9g, 3-(4-(3-((4-isothiocyanatobenzoyl)oxy)propyl)piperazin-1-yl)propyl 3,4,5-trimethoxybenzoate]
Ki [1]: 29.9 nM
Ki [2]: 29.5 nM
Ki [3]: 48.5 nM

C=CC(=O)Nc1cccc(C(=O)OCCCN2CCN(CCCOC(=O)c3cc(OC)c(OC)c(OC)c3)CC2)c1 [Compound 10a, 3-(4-(3-((3-acrylamidobenzoyl)oxy)propyl)piperazin-1-yl)propyl 3,4,5-trimethoxybenzoate]
[3H]NBTI displacement: around 20%
% displacement at 1 μM at 4 h preincubation (4 h preincubation at 10 °C): 24 (18, 30) %
% displacement at 1 μM without preincubation (without preincubation): 20 (15, 26) %

C=CC(=O)Nc1ccc(C(=O)OCCCN2CCN(CCCOC(=O)c3cc(OC)c(OC)c(OC)c3)CC2)cc1 [Compound 10b, 3-(4-(3-((4-acrylamidobenzoyl)oxy)propyl)piperazin-1-yl)propyl 3,4,5-trimethoxybenzoate]
time-dependent shift in affinity (pKi shift) or displacement upon 4 h preincubation: absence of a pKi shift
Ki [1]: 43.6 nM
Ki [3]: 33.1 nM

C=CC(=O)Nc1ccc(C(=O)OCCCCN2CCN(CCCOC(=O)c3cc(OC)c(OC)c(OC)c3)CC2)cc1 [Compound 10c, 3-(4-(4-((4-acrylamidobenzoyl)oxy)butyl)piperazin-1-yl)propyl 3,4,5-trimethoxybenzoate]
% displacement at 1 μM at 4 h preincubation (4 h preincubation at 10 °C): 41 (30, 51) %
% displacement at 1 μM without preincubation (without preincubation): 47 (40, 54) %

C=CC(=O)Nc1ccc(C(=O)OCCCN2CCN(CCCOC(=O)c3cc(OC)c(OC)c(OC)c3)CC2)cc1OC [Compound 10d, 3-(4-(3-((4-acrylamido-3-methoxybenzoyl)oxy)propyl)piperazin-1-yl)propyl 3,4,5-trimethoxybenzoate]
[3H]NBTI displacement: around 20%
% displacement at 1 μM without preincubation (without preincubation): 27 (28, 26) %

C=CC(=O)NCc1ccc(C(=O)OCCCN2CCN(CCCOC(=O)c3cc(OC)c(OC)c(OC)c3)CC2)cc1 [Compound 10e, 3-(4-(3-((4-(acrylamidomethyl)benzoyl)oxy)propyl)piperazin-1-yl)propyl 3,4,5-trimethoxybenzoate]
% displacement at 1 μM at 4 h preincubation (4 h preincubation at 10 °C): 29 (20, 37) %
% displacement at 1 μM without preincubation (without preincubation): 29 (24, 35) %

C=CC(=O)NCCc1ccc(C(=O)OCCCN2CCN(CCCOC(=O)c3cc(OC)c(OC)c(OC)c3)CC2)cc1 [Compound 10f, 3-(4-(3-((4-(2-acrylamidoethyl)benzoyl)oxy)propyl)piperazin-1-yl)propyl 3,4,5-trimethoxybenzoate]
% displacement at 1 μM at 4 h preincubation (4 h preincubation at 10 °C): 7 (0, 13) %
% displacement at 1 μM without preincubation (without preincubation): 10 (2, 18) %

C=CC(=O)NCCOc1c(OC)cc(C(=O)OCCCN2CCN(CCCOC(=O)c3cc(OC)c(OC)c(OC)c3)CC2)cc1OC [Compound 14a, 3-(4-(3-((4-(2-acrylamidoethoxy)-3,5-dimethoxybenzoyl)oxy)propyl)piperazin-1-yl)propyl 3,4,5-trimethoxybenzoate]
time-dependent shift in affinity (pKi shift) or displacement upon 4 h preincubation: no observable pKi shift
Ki [1]: 50.6 nM
Ki [3]: 48.6 nM

C=CC(=O)NCCCOc1c(OC)cc(C(=O)OCCCN2CCN(CCCOC(=O)c3cc(OC)c(OC)c(OC)c3)CC2)cc1OC [Compound 14b, 3-(4-(3-((4-(3-acrylamidopropoxy)-3,5-dimethoxybenzoyl)oxy)propyl)piperazin-1-yl)propyl 3,4,5-trimethoxybenzoate]
time-dependent shift in affinity (pKi shift) or displacement upon 4 h preincubation: no significant increase of the affinity
Ki [2]: 3.24 nM
Ki [3]: 5.9 nM

COc1cc(C(=O)OCCCN2CCN(CCCOC(=O)c3cc(OC)c(OCCCN=C=S)c(OC)c3)CC2)cc(OC)c1OC [Compound 14c, 3-(4-(3-((4-(3-isothiocyanatopropoxy)-3,5-dimethoxybenzoyl)oxy)propyl)piperazin-1-yl)propyl 3,4,5-trimethoxybenzoate]
time-dependent shift in affinity (pKi shift) or displacement upon 4 h preincubation: no significant increase of the affinity
Ki [2]: 1.55 nM
Ki (without preincubation, read-out: pKi ± SEM without preincubation (converted)): 1.07 nM

C=CS(=O)(=O)NCCCOc1c(OC)cc(C(=O)OCCCN2CCN(CCCOC(=O)c3cc(OC)c(OC)c(OC)c3)CC2)cc1OC [Compound 14d, 3-(4-(3-((3,5-dimethoxy-4-(3-(vinylsulfonamido)propoxy)benzoyl)oxy)propyl)piperazin-1-yl)propyl 3,4,5-trimethoxybenzoate]
time-dependent shift in affinity (pKi shift) or displacement upon 4 h preincubation: no significant increase of the affinity
Ki [1]: 14.2 nM
Ki [3]: 17.5 nM
